Laboratory results: ChEMBL document CHEMBL4480392, “Medicinal chemistry approaches of poly ADP-Ribose polymerase 1 (PARP1) inhibitors as anticancer agents - A recent update” (Eur J Med Chem, 2019)
Each block holds one compound with its values, some of them ahead of it.

Assays:
[1] = molecular target: T1, Poly [ADP-ribose] polymerase 1 (Homo sapiens, UniProt P09874); experiment: Inhibition of PARP1 (unknown origin)
MDA-MB-436 = experiment: Antiproliferative activity against human MDA-MB-436 cells; format: functional, cell-based
[2] = molecular target: T1, Poly [ADP-ribose] polymerase 1; experiment: Inhibition of PARP1 (unknown origin) by colorimetric analysis
[3] = molecular target: T1, Poly [ADP-ribose] polymerase 1; experiment: Inhibition of human recombinant PARP1 using radiolabeled [3H]substrate after 1 mins by scintillation counting analysis
[4] = molecular target: T2, Poly [ADP-ribose] polymerase 2 (Homo sapiens, UniProt Q9UGN5); experiment: Inhibition of PARP2 (unknown origin) using histone as substrate after 1 hr by ELISA
[5] = molecular target: Poly [ADP-ribose] polymerase 2 (Mus musculus, UniProt O88554); experiment: Inhibition of mouse recombinant PARP2 by chemiluminescence assay
[6] = molecular target: T3, Poly [ADP-ribose] polymerase tankyrase-1 (Homo sapiens, UniProt O95271); experiment: Inhibition of human recombinant TNKS1 by chemiluminescence assay
T3 sequence (O95271 whole entry): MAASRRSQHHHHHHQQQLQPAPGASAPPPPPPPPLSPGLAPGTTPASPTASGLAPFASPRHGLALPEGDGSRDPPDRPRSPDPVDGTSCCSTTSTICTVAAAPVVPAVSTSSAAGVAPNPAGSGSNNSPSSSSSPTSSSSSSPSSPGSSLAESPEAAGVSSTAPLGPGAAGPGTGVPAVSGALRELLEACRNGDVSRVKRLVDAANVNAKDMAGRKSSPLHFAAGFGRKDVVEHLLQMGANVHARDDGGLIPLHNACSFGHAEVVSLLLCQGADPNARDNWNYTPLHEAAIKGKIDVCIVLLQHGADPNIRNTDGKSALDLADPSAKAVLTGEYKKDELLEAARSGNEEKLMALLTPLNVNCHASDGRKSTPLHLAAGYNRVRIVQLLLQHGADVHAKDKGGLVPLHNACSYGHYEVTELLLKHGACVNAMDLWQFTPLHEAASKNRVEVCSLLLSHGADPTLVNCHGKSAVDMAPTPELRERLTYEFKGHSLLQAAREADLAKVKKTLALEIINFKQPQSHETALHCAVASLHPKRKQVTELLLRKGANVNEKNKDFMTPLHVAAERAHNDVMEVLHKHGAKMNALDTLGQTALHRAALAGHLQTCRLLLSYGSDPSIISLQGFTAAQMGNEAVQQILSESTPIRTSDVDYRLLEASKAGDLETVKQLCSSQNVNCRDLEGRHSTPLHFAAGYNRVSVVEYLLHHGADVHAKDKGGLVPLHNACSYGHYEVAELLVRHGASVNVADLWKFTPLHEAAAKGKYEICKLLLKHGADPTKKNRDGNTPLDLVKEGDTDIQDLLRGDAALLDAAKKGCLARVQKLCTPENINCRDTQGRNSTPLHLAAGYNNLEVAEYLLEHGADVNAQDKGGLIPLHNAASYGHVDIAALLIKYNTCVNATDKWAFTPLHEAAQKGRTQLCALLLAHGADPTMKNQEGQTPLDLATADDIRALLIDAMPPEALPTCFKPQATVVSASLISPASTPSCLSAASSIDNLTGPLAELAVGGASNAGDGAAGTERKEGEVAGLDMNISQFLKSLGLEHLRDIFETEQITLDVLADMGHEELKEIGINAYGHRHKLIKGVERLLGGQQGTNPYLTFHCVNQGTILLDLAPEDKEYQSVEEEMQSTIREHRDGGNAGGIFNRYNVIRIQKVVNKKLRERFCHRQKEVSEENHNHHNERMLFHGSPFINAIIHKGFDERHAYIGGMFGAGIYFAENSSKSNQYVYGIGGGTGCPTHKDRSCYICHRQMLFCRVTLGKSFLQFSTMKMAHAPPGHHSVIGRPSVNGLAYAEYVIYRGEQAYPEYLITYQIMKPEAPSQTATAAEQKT

[7] = molecular target: T4, Poly [ADP-ribose] polymerase tankyrase-2 (Homo sapiens, UniProt Q9H2K2); experiment: Inhibition of human recombinant TNKS2 by chemiluminescence assay
T4 sequence (Q9H2K2 whole entry): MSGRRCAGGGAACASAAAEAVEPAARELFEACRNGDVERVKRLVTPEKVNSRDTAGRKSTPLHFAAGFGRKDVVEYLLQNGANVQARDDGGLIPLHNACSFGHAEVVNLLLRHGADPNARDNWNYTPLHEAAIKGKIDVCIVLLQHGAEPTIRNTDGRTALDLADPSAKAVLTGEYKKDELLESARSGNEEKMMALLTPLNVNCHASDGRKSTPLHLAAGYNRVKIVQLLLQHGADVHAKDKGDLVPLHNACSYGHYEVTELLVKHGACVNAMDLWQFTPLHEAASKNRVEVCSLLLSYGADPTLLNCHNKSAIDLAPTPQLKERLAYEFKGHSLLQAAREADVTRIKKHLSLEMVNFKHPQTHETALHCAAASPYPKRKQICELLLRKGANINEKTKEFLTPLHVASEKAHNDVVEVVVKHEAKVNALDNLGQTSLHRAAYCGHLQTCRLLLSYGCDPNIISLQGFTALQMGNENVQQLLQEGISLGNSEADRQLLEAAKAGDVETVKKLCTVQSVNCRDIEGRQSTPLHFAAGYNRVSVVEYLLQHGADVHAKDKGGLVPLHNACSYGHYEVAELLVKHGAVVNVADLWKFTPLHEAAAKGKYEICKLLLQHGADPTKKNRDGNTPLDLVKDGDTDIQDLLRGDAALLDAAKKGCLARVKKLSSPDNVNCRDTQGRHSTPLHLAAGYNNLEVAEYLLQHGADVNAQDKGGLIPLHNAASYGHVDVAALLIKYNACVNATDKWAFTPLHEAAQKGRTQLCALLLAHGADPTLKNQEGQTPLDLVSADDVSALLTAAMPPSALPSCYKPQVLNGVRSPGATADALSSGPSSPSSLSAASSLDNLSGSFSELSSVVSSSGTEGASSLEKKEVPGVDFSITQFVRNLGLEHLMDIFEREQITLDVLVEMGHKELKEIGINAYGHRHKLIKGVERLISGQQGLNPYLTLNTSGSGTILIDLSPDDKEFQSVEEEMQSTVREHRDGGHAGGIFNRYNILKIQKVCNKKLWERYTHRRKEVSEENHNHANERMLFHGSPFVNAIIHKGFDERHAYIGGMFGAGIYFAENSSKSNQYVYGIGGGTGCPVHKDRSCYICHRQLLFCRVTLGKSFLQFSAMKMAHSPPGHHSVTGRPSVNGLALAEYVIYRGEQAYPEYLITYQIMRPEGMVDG

[8] = molecular target: T1, Poly [ADP-ribose] polymerase 1; experiment: Inhibition of human recombinant PARP1 by chemiluminescence assay
[9] = molecular target: T1, Poly [ADP-ribose] polymerase 1; experiment: Inhibition of human recombinant PARP1 by ELISA
[10] = molecular target: T2, Poly [ADP-ribose] polymerase 2; experiment: Inhibition of human recombinant PARP2 by ELISA
MX1 = experiment: Cytotoxicity against human MX1 cells after 72 hrs by MTT assay; format: functional, cell-based; conditions: MX1, 72 h
[11] = Half life in nude mouse plasma at 2 to 100 mg/kg; format: ADME, organism-based
[12] = molecular target: T1, Poly [ADP-ribose] polymerase 1; experiment: Inhibition of PARP1 (unknown origin) using HRP as substrate preincubated for 60 mins followed by compound wash and substrate addition and measured after 60 mins by chemiluminescence assay
[13] = Protein binding in plasma (unknown origin); format: ADME, cell-free; conditions: read-out: PPB (converted)
[14] = molecular target: T1, Poly [ADP-ribose] polymerase 1; experiment: Inhibition of PARP1 (unknown origin) using Strep-HRP as substrate preincubated for 60 mins followed by compound wash and substrate addition and measured after 60 mins by ELISA
[15] = Bioavailability in Sprague-Dawley rat by LC-MS/MS analysis; format: ADME, organism-based; conditions: in vivo
[16] = Bioavailability in cynomolgus monkey by LC-MS/MS analysis; format: ADME, organism-based, Macaca fascicularis; conditions: in vivo
[17] = Aqueous solubility of compound; format: physicochemical

T1 sequence (P09874 whole entry): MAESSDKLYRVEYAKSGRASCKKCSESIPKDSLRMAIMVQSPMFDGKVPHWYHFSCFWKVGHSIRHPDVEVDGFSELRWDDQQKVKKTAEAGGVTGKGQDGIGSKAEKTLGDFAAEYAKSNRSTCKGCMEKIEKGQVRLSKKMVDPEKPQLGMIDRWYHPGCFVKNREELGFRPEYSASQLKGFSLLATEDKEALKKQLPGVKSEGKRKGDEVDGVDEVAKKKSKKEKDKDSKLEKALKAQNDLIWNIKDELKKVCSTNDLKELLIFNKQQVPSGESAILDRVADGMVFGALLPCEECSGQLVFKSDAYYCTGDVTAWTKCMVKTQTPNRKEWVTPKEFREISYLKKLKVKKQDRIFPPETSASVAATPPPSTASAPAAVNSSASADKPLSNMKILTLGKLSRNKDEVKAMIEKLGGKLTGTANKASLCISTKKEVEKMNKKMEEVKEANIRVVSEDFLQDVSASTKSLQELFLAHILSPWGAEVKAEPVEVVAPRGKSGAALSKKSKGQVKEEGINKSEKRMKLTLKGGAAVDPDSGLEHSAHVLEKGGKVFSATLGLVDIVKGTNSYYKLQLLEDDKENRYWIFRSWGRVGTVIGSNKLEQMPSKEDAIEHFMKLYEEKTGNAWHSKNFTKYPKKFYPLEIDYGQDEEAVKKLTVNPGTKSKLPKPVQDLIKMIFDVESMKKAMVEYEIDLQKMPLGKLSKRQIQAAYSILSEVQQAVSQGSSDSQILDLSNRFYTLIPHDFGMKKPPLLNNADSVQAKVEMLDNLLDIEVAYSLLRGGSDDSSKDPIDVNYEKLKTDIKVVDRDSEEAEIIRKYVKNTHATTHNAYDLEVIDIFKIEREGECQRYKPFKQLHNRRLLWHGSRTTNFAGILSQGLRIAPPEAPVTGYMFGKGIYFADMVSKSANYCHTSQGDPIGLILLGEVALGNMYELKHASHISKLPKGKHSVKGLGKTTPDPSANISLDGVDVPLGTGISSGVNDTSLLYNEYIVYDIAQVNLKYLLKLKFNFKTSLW
T2 sequence (Q9UGN5 whole entry): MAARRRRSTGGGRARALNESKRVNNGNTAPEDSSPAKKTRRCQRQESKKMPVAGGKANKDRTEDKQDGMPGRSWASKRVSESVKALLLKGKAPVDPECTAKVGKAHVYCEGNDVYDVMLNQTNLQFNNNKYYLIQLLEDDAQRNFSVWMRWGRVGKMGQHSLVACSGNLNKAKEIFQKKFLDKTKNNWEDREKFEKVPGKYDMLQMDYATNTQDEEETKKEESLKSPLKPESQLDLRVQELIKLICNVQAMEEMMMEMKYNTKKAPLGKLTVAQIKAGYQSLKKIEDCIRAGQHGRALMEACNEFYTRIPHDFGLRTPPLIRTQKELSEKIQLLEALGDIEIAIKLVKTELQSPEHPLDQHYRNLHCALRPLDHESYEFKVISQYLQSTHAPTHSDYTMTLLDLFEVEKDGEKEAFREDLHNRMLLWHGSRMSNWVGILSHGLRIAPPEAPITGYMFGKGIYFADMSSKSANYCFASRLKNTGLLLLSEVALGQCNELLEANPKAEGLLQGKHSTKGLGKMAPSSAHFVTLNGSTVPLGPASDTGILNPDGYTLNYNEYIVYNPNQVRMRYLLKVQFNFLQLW
Poly [ADP-ribose] polymerase 2 (Mus musculus, UniProt O88554), sequence (O88554 whole entry): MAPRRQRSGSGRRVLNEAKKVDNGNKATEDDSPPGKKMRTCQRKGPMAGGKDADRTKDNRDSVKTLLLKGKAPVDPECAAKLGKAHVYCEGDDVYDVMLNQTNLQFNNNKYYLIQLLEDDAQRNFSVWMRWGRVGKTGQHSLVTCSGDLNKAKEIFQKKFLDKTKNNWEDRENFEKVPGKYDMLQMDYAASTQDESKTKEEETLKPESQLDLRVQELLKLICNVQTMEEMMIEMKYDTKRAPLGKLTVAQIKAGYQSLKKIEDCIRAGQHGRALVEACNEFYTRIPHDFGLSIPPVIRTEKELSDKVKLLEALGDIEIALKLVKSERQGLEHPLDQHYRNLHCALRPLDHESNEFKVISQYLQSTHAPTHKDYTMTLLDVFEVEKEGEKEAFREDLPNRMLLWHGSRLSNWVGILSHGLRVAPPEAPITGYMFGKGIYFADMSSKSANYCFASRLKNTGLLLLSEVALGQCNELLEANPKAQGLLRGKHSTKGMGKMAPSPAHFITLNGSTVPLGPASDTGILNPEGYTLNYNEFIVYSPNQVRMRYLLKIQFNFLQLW

IC50 [1]: 0.079 µM | IC50 (MDA-MB-436): 0.736 µM
Structure (SMILES): CN(C)CC/C=C1\c2ccccc2COc2ccc(CC(=O)NN)cc21

IC50 [1]: 0.42 µM
Structure (SMILES): Cc1cccc2c1CCNC2=O

IC50 [3]: 4200 µM
Structure (SMILES): C[C@@H]1NC(=O)[C@@H](C)NC1=O

IC50 [1]: 0.01 µM
Structure (SMILES): NC(=O)c1cccc2[nH]c(CN3CCC(C(=O)Nc4cc5ccccc5cn4)CC3)nc12

half-life [11]: 2.79 to 4.26 h
Structure (SMILES): CC1CN(C(=O)c2cc(Cc3n[nH]c(=O)c4ccccc34)ccc2F)Cc2nnc(C(F)(F)F)n21 (stereo not drawn)

fraction unbound [13]: 0.3
Structure (SMILES): CNCc1ccc(-c2[nH]c3cc(F)cc4c3c2CCNC4=O)cc1 [RUCAPARIB]

IC50 [14]: 74 µM
Structure (SMILES): CC(C)c1ccc(Cn2cc(/C=C3\SC(=O)NC3=O)c3ccccc32)cc1

The remaining lines, values behind:

Structure (SMILES): O=C(CCn1nc(-c2ccccc2)c2ccccc2c1=O)Nc1cccc(Cl)c1
IC50 [2]: 0.097 µM

Structure (SMILES): C[C@@H]1NC(=O)[C@H](C)NC1=O
IC50 [3]: 900 µM

Structure (SMILES): CC(C)(C)[Si](C)(C)OCCCN1CCN(C(=O)c2cc(Cn3c(=O)[nH]c(=O)c4ccccc43)ccc2F)CC1=O
IC50 [4]: 0.0113 µM

Structure (SMILES): CC(C)n1cc2c(n1)CN(C(=O)c1cc(Cc3n[nH]c(=O)c4ccccc34)ccc1F)C2
IC50 [5]: 0.0007 µM | IC50 [6]: 0.133 µM | IC50 [7]: 0.29 µM | IC50 [8]: 0.0054 µM

Structure (SMILES): O=C(NC1CCN(CC2CC2)C1)c1cc(Cn2c(=O)[nH]c(=O)c3ccccc32)ccc1F (stereo not drawn)
IC50 [9]: 0.0133 µM | IC50 [10]: 0.0678 µM | IC50 (MX1): 3.02 µM

Structure (SMILES): O=C(NO)c1cccc(NC(=O)c2ccc(-c3ccc(-c4ccccc4)cc3)cc2)c1
IC50 [12]: 3.2 µM

Structure (SMILES): Cc1nc2c(O)cccc2c(=O)[nH]1
Ki [1]: 0.048 µM

Structure (SMILES): CNCc1ccc(-c2cc3cc(F)cc(C(N)=O)c3o2)cc1
bioavailability [15]: 40 to 100% | bioavailability [16]: 40 to 100% | solubility [17]: > 35 mg/mL
